Assay results taken from US20220226337A1 (Gilead Sciences, Inc., priority 2018, published 2022).

These molecules were tested against T1, α4β7 integrin interaction with MadCAM-1 (RPMI8866 cells) (Homo sapiens, UniProt P13612+P26010) (assay: α4β7 Integrin Cell Capture Assay). Conditions: capture of α4β7 integrin expressing RPMI8866 cells on recombinant MadCAM-1 extracellular domain-coated plate; 0.5 mM MnCl2.
T1 construct: α4β7 integrin expressing cells; endogenous in cells; host or cells: RPMI8866 cells
T1 sequence (P13612 34-1032): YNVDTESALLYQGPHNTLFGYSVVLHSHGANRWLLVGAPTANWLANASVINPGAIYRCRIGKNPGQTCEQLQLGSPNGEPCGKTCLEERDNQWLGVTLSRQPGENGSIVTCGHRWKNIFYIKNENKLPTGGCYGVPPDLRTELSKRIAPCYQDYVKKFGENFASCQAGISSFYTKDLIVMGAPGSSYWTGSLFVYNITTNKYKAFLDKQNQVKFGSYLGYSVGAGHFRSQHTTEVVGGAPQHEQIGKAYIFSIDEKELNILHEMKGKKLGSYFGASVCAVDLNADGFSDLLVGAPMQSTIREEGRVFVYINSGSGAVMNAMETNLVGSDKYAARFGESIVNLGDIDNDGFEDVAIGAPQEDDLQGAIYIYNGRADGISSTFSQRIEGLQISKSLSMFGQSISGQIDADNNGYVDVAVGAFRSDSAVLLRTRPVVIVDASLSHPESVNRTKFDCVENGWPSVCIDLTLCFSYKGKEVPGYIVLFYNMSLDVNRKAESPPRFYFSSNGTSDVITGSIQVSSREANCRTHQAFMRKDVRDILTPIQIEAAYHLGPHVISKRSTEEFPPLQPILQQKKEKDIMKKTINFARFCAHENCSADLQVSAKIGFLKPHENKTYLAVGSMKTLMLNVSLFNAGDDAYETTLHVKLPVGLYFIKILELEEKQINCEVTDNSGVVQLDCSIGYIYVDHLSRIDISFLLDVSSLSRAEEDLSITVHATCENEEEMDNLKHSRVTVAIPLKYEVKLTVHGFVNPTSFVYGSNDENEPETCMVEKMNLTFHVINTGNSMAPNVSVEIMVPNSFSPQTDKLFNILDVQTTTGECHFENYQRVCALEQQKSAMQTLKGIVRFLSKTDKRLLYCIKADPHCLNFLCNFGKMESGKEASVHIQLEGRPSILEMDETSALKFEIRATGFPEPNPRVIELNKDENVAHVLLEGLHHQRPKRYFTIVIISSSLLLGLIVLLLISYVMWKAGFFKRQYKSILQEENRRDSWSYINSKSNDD
T1 sequence (P26010 20-798): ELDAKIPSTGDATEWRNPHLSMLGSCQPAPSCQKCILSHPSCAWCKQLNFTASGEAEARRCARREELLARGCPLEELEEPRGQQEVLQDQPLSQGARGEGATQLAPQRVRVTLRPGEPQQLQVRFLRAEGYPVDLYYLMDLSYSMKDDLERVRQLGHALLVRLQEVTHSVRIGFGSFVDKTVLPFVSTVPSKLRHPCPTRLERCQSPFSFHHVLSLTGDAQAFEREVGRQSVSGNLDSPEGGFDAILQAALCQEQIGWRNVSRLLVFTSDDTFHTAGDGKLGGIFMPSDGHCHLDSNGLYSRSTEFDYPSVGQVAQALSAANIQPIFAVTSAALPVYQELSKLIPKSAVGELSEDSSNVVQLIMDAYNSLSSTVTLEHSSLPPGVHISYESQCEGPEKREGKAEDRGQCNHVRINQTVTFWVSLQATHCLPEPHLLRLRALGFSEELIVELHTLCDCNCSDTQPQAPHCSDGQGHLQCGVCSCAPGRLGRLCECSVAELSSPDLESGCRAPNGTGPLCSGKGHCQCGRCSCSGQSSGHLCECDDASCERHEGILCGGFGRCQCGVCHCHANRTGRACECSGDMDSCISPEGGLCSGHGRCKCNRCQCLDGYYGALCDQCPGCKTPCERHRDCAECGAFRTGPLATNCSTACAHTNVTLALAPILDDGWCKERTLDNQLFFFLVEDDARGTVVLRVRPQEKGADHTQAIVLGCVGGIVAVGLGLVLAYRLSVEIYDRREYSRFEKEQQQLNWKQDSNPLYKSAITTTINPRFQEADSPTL
Type: cell-based
Experimental: The potency of inhibitors in preventing α4β7 integrin interaction with MadCAM-1 was measured by monitoring the capture of α4β7 integrin expressing cells on a recombinant MadCAM-1 extracellular domain-coated plate. 384-well plates (Corning 3702) were coated with MadCAM-1 extracellular domain by dispensing 20 μL of MAdCAM-1 at 1.0 μg/mL per well and incubating overnight at 4° C. The plates were then washed with PBS and blocked with 3% BSA for 2 hours before being washed again. RPMI8866 cells were spun down and re-suspended in assay medium (DMEM+0.5% FBS+0.5 mM MnCl2) at a density of 0.5×10^6 cells/mL. The cells were then dispensed (60 μL/well) to a 384-well plate (Greiner 781280) that was previously spotted with 60 nL of test compound per well. The plates were incubated at 37° C. for 1 hour. 50 μL of cells were transferred to the blocked, MadCAM-1-coated plates and incubated for 30 minutes at 37° C. 10 μL of 12% glutaraldehyde containing Hoechst 33342 (0.06 mg/mL) was added to the cells (2% glutaraldehyde and 0.01 mg/mL final concentrations). The plates were incubated for 90 minutes at room temperature. The plates were then washed 3 times with 70 μL of PBS per well and imaged on a Cellomics ArrayScan instrument. The cells that were bound to the plate were counted and plotted against the compound concentration to determine the EC50 of the test compounds.
With `Cc1nc(-c2ccc(C[C@H](NC(=O)c3c(F)cc(N4CCC(F)(F)C[C@@H]4C(F)(F)F)cc3F)C(=O)O)c3c2OCCC3)c(=O)n(C)c1C` [Example 144] the EC50 was 0.552 nM.
`CC1(C)CCc2c(C[C@H](NC(=O)c3c(Cl)cccc3Cl)C(=O)O)ccc(-c3c(Cl)cc(F)cc3Cl)c2O1` [Example 95, (S)-3-(8-(2,6-dichloro-4-fluorophenyl)-2,2-dimethylchroman-5-yl)-2-(2,6-dichlorobenzamido)propanoic acid] gave an EC50 of 625 nM.
`Cc1cc(-c2ccc(C[C@H](NC(=O)c3c(F)cc(N4CCOC[C@@H]4C(F)(F)F)cc3F)C(=O)O)c3c2OCCC3)c(=O)n(C)n1` [Example 148] gave an EC50 of 0.76 nM.
With `Cc1c(-c2ccc(C[C@H](NC(=O)c3c(Cl)cccc3Cl)C(=O)O)c3c2OCCC3)c(=O)n(C)c2ccccc12` (single isomer, unassigned) [Example 62] the EC50 was 3.3 nM.
For `Cc1cc(C)n(C)c(=O)c1-c1ccc(C[C@H](NC(=O)c2c(F)cc(N3CCOC[C@@H]3C(F)(F)F)cc2Cl)C(=O)O)c2c1OCCC2` [Example 159], the EC50 was 0.226 nM.
In the case of `O=C(N[C@@H](Cc1ccc(-c2c(Cl)cc(F)cc2Cl)c2c1CCCO2)C(=O)O)c1c(F)cc(N2CCOC[C@@H]2C(F)(F)F)cc1F` [Example 83, (S)-3-(8-(2,6-dichloro-4-fluorophenyl)chroman-5-yl)-2-(2,6-difluoro-4-((R)-3-(trifluoromethyl)morpholino)benzamido)propanoic acid], the EC50 is reported as 35.5 nM.
`CN1CCCc2c(C[C@H](NC(=O)c3c(F)cccc3F)C(=O)O)ccc(-c3c(Cl)cc(F)cc3Cl)c21` [Example 102, (S)-3-(8-(2,6-dichloro-4-fluorophenyl)-1-methyl-1,2,3,4-tetrahydroquinolin-5-yl)-2-(2,6-difluorobenzamido)propanoic acid] gave an EC50 of 267 nM.
In the case of `Cc1cc(N2CCOC[C@@H]2C(F)(F)F)cc(F)c1C(=O)N[C@@H](Cc1ccc(-c2cc(C)c(C)n(C)c2=O)c2c1CCCO2)C(=O)O` [Example 155], the EC50 is reported as 0.358 nM.
Molecule `CC[C@@H](Nc1cc(F)c(C(=O)N[C@@H](Cc2ccc(-c3c(C)c4cc(F)ccc4n(C)c3=O)c3c2CCCO3)C(=O)O)c(F)c1)C(F)(F)F` [Example 33, (S)-2-(2,6-difluoro-4-(((R)-1,1,1-trifluorobutan-2-yl)amino)benzamido)-3-(8-(6-fluoro-1,4-dimethyl-2-oxo-1,2-dihydroquinolin-3-yl)chroman-5-yl)propanoic acid] has an EC50 of 2.72 nM.
Molecule `CC[C@@H](Nc1cc(F)c(C(=O)N[C@@H](Cc2ccc(-c3c(C)cc(C)n(C)c3=O)c3c2COC3)C(=O)O)c(F)c1)C(F)(F)F` [Example 22, (S)-2-(2,6-difluoro-4-(((R)-1,1,1-trifluorobutan-2-yl)amino)benzamido)-3-(7-(1,4,6-trimethyl-2-oxo-1,2-dihydropyridin-3-yl)-1,3-dihydroisobenzofuran-4-yl)propanoic acid] has an EC50 of 1.35 nM.
Work on `Cc1c(-c2ccc(C[C@H](NC(=O)c3c(F)cccc3F)C(=O)O)c3c2OCCC3)c(=O)n(C)c2ccccc12` (single isomer, unassigned) [Example 58] yielded an EC50 of 2.56 nM.
Molecule `CC[C@@H](Nc1cc(F)c(C(=O)N[C@@H](Cc2ccc(-c3c(C)n(C)c(=O)n(C)c3=O)c3c2CCCO3)C(=O)O)c(F)c1)C(F)(F)F` (single isomer, unassigned) [Example 55] has an EC50 of 0.152 nM.
In the case of `O=C(N[C@@H](Cc1ccc(-c2ncc3ccccc3c2Br)c2c1CCCO2)C(=O)O)c1c(Cl)cccc1Cl` [Example 63, (S)-3-(8-(4-bromoisoquinolin-3-yl)chroman-5-yl)-2-(2,6-dichlorobenzamido) propanoic acid], the EC50 is reported as 7.99 nM.
For `Cc1cc(N2CCOC[C@@H]2C(F)(F)F)cc(F)c1C(=O)N[C@@H](Cc1ccc(-c2cc(N(C)C)c(C)n(C)c2=O)c2c1CCCO2)C(=O)O` [Example 147], the EC50 was 2.42 nM.
Molecule `Cc1c(-c2ccc(C[C@H](NC(=O)c3c(Cl)cccc3Cl)C(=O)O)c3c2OCCC3)c(=O)n(C)c2ccccc12` [Example 60, (S)-2-(2,6-dichlorobenzamido)-3-(8-(1,4-dimethyl-2-oxo-1,2-dihydroquinolin-3-yl)chroman-5-yl)propanoic acid] has an EC50 of 4.12 nM.
In the case of `Cc1cc(C)n(C)c(=O)c1-c1ccc(C[C@H](NC(=O)c2c(F)cc(N[C@H](C)C(F)(F)F)cc2F)C(=O)O)c2c1OCCC2` [Example 53, (S)-2-(2,6-difluoro-4-(((R)-1,1,1-trifluoropropan-2-yl)amino)benzamido)-3-(8-(1,4,6-trimethyl-2-oxo-1,2-dihydropyridin-3-yl)chroman-5-yl)propanoic acid], the EC50 is reported as 3.28 nM.
With `Cc1cc(N2CCCC[C@@H]2C(F)(F)F)cc(F)c1C(=O)N[C@@H](Cc1ccc(-c2nc(C)c(C)n(C)c2=O)c2c1CCCO2)C(=O)O` [Example 149] the EC50 was 0.715 nM.
`Cn1c(=O)c(-c2ccc(C[C@H](NC(=O)c3c(F)cc(N4CCOC[C@@H]4C(F)(F)F)cc3F)C(=O)O)c3c2OCCC3)cc2cnccc21` [Example 171] was tested, and the EC50 was 0.201 nM.
In the case of `COc1cc(C)n(C)c(=O)c1-c1ccc(C[C@H](NC(=O)c2c(C)cc(N3CCOC[C@@H]3C(F)(F)F)cc2F)C(=O)O)c2c1CCC2` [Example 198], the EC50 is reported as 0.081 nM.
Work on `CCc1nc(-c2ccc(C[C@H](NC(=O)c3c(C)cc(N4CCOC[C@@H]4C(F)(F)F)cc3F)C(=O)O)c3c2OCCC3)c(=O)n(C)c1CC` [Example 169] yielded an EC50 of 0.356 nM.
In the case of `COc1cc(C)n(C)c(=O)c1-c1ccc(C[C@H](NC(=O)c2c(F)cc(N3CCOC[C@@H]3C(F)(F)F)cc2F)C(=O)O)c2c1OCCC2` [Example 46, (S)-2-(2,6-difluoro-4-((R)-3-(trifluoromethyl)morpholino)benzamido)-3-(8-(4-methoxy-1,6-dimethyl-2-oxo-1,2-dihydropyridin-3-yl)chroman-5-yl)propanoic acid], the EC50 is reported as 0.25 nM.
`COc1cccc(OC)c1-c1ccc(CC(NC(=O)c2c(F)cc(NS(=O)(=O)c3ccc(-n4cncn4)cc3)cc2F)C(=O)O)c2c1CN(C)CC2` (centres unmarked) [Example 106, 2-(4-((4-(1H-1,2,4-triazol-1-yl)phenyl)sulfonamido)-2,6-difluorobenzamido)-3-(8-(2,6-dimethoxyphenyl)-2-methyl-1,2,3,4-tetrahydroisoquinolin-5-yl)propanoic acid] showed an EC50 of 0.587 nM.
`Cn1cc(-c2ccc(C[C@H](NC(=O)c3c(F)cc(N[C@H](c4ccccc4)C(F)(F)F)cc3F)C(=O)O)c3c2OCCC3)c(=O)n(C)c1=O` [Example 85, (S)-2-(2,6-difluoro-4-(((R)-2,2,2-trifluoro-1-phenylethyl)amino)benzamido)-3-(8-(1,3-dimethyl-2,4-dioxo-1,2,3,4-tetrahydropyrimidin-5-yl)chroman-5-yl) propanoic acid] showed an EC50 of 0.53 nM.
